Each compound was assayed on Plasmodium falciparum (assay: GSK_TCMDC: Inhibition of Plasmodium falciparum 3D7 in whole erythrocytes, using parasite LDH activity as an index of growth.). Conditions: Plasmodium falciparum, 3D7.
Format: functional, organism-based

SMILES	XC50 [nM]
Cc1ccc(S(=O)(=O)N2CCCN(C(=O)c3cc(-c4ccccc4)[nH]n3)CC2)cc1	84.3
CCOC(=O)C(=O)N1c2ccc(OCC)cc2-c2c(ssc2=S)C1(C)C	216
CCOc1ccc(C(=O)Nc2nonc2-c2ccc(OC)c(OC)c2)cc1	868
CN1CCCc2ccc(NC(=O)c3cc(-c4ccc(Cl)cc4)cs3)cc2C1	793
O=C(/C=C/c1c(Cl)cccc1Cl)NC1CCC(CN2C3CCC2CC(c2c[nH]c4ccccc24)C3)CC1 (stereo not drawn)	844
COc1cccc(CNC[C@@H](O)[C@H](Cc2ccccc2)NC(=O)c2cc(OC(C)C)cc(N3CCCCS3(=O)=O)c2)c1	730
CC(C)(C)n1nnnc1C(c1cccnc1)N(Cc1ccccc1)Cc1ccc(Cl)cc1 (stereo not drawn)	744
Oc1cccc(Nc2ccnc3cc(-c4ccncc4)ccc23)c1	1050
Cc1cc(N2CCN(C)CC2)nc2ccc(NC(=O)c3cccc(N(C)C)c3)cc12	954
Cc1cc2[nH]c(-c3ccc(C(=O)NCCCN4CCN(c5cccc(Cl)c5)CC4)cc3F)nc2cc1Cl	479
CC1CCc2c(C(=O)N3CCc4ccccc4C3)csc2C1 (stereo not drawn)	782
CCN1C(=O)C(CC(=O)Nc2cccc(Cl)c2)N(Cc2ccc(OC)c(OC)c2)C1=S (stereo not drawn)	607
O=C1NC(=O)C(c2cccc(NC(=O)c3ccncc3)c2)=C1c1ccccc1	735
CC(=O)Nc1ccc(S(=O)(=O)NC2=NC(=N)N(OCc3ccc(Cl)c(Cl)c3)C(C)(C)N2)cc1	33.9
C=CCN1C(=O)CN(S(=O)(=O)c2ccc(-n3nc(C)cc3C)cc2)C1=S	941
CN1CCCCC1CCc1cc(C(=O)Nc2ccc(-c3ccc(O)cc3)cc2)ccc1O (stereo not drawn)	1110
CCc1cn2c3c(cc(C(=O)N[C@@H](Cc4ccccc4)[C@H](O)CNCc4ccccc4)cc13)N(C)S(=O)(=O)CC2	664
N=C(N)Nc1ccc(OCCCCCOc2ccc(NC(=N)N)cc2)cc1	193
O=C(NC1CCC(CCN2CCc3ccc(-c4cnccn4)cc3CC2)CC1)c1cccc(-n2cccn2)c1 (stereo not drawn)	899
O=C(NC1CCC(N2CCCC(OCc3ccccc3)C2)CC1)c1cc2ccccc2[nH]1 (stereo not drawn)	1210
O=C(Nc1cccc(-c2ccc(-c3nc4cc(F)ccc4[nH]3)cc2)c1)Nc1ccc(F)c(F)c1F	113
Cc1c(CNCCN2CCCCC2)c(C(=O)O)c(C)n1Cc1ccc(Cl)cc1	416
Fc1ccc2[nH]c(-c3ccc(-c4ccc(CNCC5CCCO5)cc4)s3)nc2c1 (stereo not drawn)	599
CCCCCCCN1CC[C@@H](CCCc2ccnc3ccc(OCCN4CCOCC4)cc23)[C@@H](CC)C1	909
C(=NNc1nc2ccccc2[nH]1)c1ccccc1OCc1ccccc1	256

SMILES	XC50 [nM]
CN(CCCCNC(=O)c1cc2ccccc2[nH]1)C1CC2(CCN(C(=O)OC(C)(C)C)CC2)c2ccccc21 (stereo not drawn)	928
COc1cccc2cc(C(=O)N[C@@H](CC(C)C)C(=O)N[C@H](C=NN3CCCC3=O)Cc3ccccc3)oc12	558
CC(C)(C)c1ccc(CN2CCC(CNC(=O)c3cc(-c4ccccc4F)cs3)C2)cc1 (stereo not drawn)	564
COc1cc(Cc2cnc(N)nc2N)cc(CC(C)O)c1O (stereo not drawn)	843
CCc1ccccc1-c1csc(C(=O)NCC2CCN(Cc3ccc(C(C)(C)C)cc3)C2)c1 (stereo not drawn)	1150
COc1cc(C2CCCCC2)c(OC)cc1CC1c2cc(O)c(Cl)cc2CCN1C (stereo not drawn)	449
Cc1[nH]c(C)c(-c2ccc(OCCn3cnc(Cl)c3Cl)cc2)c(=O)c1Br	853
Cc1cccc2nc(-c3ccc(-c4cccc(NC(=O)C(C)CN5CCN(C)CC5)c4)s3)[nH]c12 (stereo not drawn)	748
O=C(/C=C/c1ccc(Cl)c(Cl)c1)N1CCC(CCN2CCC(c3c[nH]c4cnccc34)CC2)CC1	119
CC1(C)NC(N)=NC(=N)N1OCCCc1ccc(Cl)cc1Cl	3.2
O=C(N[C@H]1CCN(Cc2ccc(OCCCN3CCCCC3)cc2)C1)c1cc(Cl)cc(Cl)c1	621
O=C(Cc1ccc(NC(=O)c2ccc(O)c(-c3ccc(Cl)c(Cl)c3)c2)cc1)NCCN1CCOCC1	806
CCn1c(-c2nonc2N)nc2c(-c3ccccc3)ncc(OCCCNCCCN3CCOCC3)c21	669
O=C(Cc1ccc(-c2ccccc2)cc1)N[C@H]1CCN(Cc2ccc(OCCCN3CCCCC3)cc2)C1	772
OC(c1ccccc1)C1CN(CCC2CC3CCC2C3)CCC1(O)c1ccccc1 (stereo not drawn)	346
CN(C)C(CNC(=O)c1cc(-c2ccncc2)c(-c2ccc(NC(=O)Nc3cccc(F)c3)cc2)o1)c1ccccc1 (stereo not drawn)	772
CC(C)(C)c1ccc(CN2CCC(CNC(=O)c3cc(-c4ccccc4Cl)cs3)C2)cc1 (stereo not drawn)	856
N#Cc1ccc(-c2nc3c(N4CCCC4)cccc3n2CCNCc2ccccc2)cc1	593
NC(=O)c1ccccc1Nc1nc(Nc2cc[nH]n2)ncc1Cl	958
Cc1onc(-c2ccccc2)c1C(=O)Nc1nc(-c2ccccn2)nc2ccsc12	685
CN1c2ccc([N+](=O)[O-])cc2C(C)(C)C12C=Cc1cc(Br)cc([N+](=O)[O-])c1O2 (stereo not drawn)	785
CCn1c(-c2nonc2N)nc2c(-c3cccc(NC(=O)Nc4cccc(OC)c4)c3)ncc(OCCCN)c21	769
O=C(NCc1ccc(F)cc1)c1cc(Br)cc(N2CCN(c3ccncc3)CC2)c1	1230
CCCCN(CCCC)Cc1cc2ccccc2cc1O	348
Oc1cccc(Nc2ccnc3cc(-c4cc5ccccc5o4)ccc23)c1	763

SMILES	XC50 [nM]
NC(=O)c1cnc2cc(-c3ccoc3)ccc2c1Nc1ccc(NC(=O)Nc2ccccc2Cl)cc1	538
Cc1cc(N[C@@H](Cc2ccccc2)C(=O)NCCc2ccccc2)nc(NCCc2ccc(F)cc2)n1	661
CC(C)C[C@H](Nc1ccnc(NCC2CCCCC2)n1)C(=O)NCCOc1ccccc1	1020
COc1ccc(Nc2nccc(N3CCC(NC(=O)Nc4cccc(OC)c4)C3)n2)cc1 (stereo not drawn)	424
Cc1cc(N/N=C/c2cccc([N+](=O)[O-])c2)c2cc(F)ccc2n1	595
C=C[C@H]1CN2CC[C@H]1C[C@H]2[C@H](O)c1cc(-c2ccc(Cl)cc2)nc2ccc(OC)cc12	30.3
CC(C)(C)c1cc(NC2CC2)nc(-c2ccccn2)n1	719
CCCc1cc(OCCCOc2ccccc2)ccc1OCCCON1C(=N)N=C(N)NC1(C)C	3.2
CC(C)c1cc(Oc2c(I)cc(CCNCc3ccccc3)cc2I)ccc1O	536
O=C(CCc1cccnc1)Nc1cccc(-c2ccc(-c3nc4cc(C(F)(F)F)ccc4[nH]3)s2)c1	953
Clc1cccc(-c2nc(Nc3ccnc(-c4ccc(CN5CCOCC5)cc4)c3)c3ccccc3n2)c1	710
CC1(C)CCCN(C(=O)Cc2ccc3c(c2)CCCC3)C1CN1CC=CC1 (stereo not drawn)	720
CC1CN(Cc2ccc(C#N)cc2)CCN1c1ccc(NC(=O)c2cccs2)cc1 (stereo not drawn)	809
Cc1cc(=O)c(-c2ccc(Oc3ccc(OC(F)(F)F)cc3)cc2)c(C)[nH]1	363
CCCCCCc1ncc(-c2cc3cc(O)c(-c4ccccc4)cc3oc2=O)s1	1240
COc1ccc(Cl)cc1N1CCN(CCCNC(=O)c2ccc(-c3nc4cc(Cl)c(F)cc4[nH]3)s2)CC1	314
N=c1sc2ccccc2n1CC(O)c1ccc(Cl)c(Cl)c1 (stereo not drawn)	800
O=C(O[C@H]1CN[C@H](C#Cc2cc3c(Nc4ccc(OCc5cccc(F)c5)c(Cl)c4)ncnc3s2)C1)N1CCCC1	707
CCCCc1cc(NCC)nc(Nc2cccc(OC)c2)n1	922
Cc1[nH]n(-c2cccc(Cl)c2)c(=O)c1-c1ccc(Cl)cc1	929
O=c1nc(NCCCNCc2cc3c(Cl)cc(Cl)cc3[nH]2)[nH]c2ccccc12	993
Cc1ccnc(NC(c2cccc(Cl)c2Cl)c2ccc3cccnc3c2O)c1 (stereo not drawn)	1000
OC(c1ccc(Cl)cc1)(c1ccc(Cl)cc1)C(c1ccc(Cl)cc1)n1ccnc1 (stereo not drawn)	863
c1ccc(CN2CCc3cc4nccc(N5CCNCC5)c4cc32)cc1	400
COc1ccc2nccc([C@@H](O)CN3CCC(NCc4ccc5c(n4)NC(=O)CS5)C(F)C3)c2c1 (stereo partly drawn)	912

SMILES	XC50 [nM]
CCN(CC)/C(=N\C(=N)NCCCCCCNC(=N)/N=C(\Nc1ccc(Cl)cc1)N(CC)CC)Nc1ccc(Cl)cc1	927
FC(F)(F)c1cc(Nc2ccc(Oc3ccccc3)cc2)c2cc(-c3ccncc3)ccc2n1	454
CC(=O)Nc1ccc([N+](=O)[O-])c2c(Br)cccc12	636
Nc1ncnc2occ(-c3ccc(NC(=O)Nc4cc(C(F)(F)F)ccc4F)cc3)c12 [GW770249A]	1720
CCCCCOc1ccc(N2C(N)=NC(N)=NC2(C)C)cc1	205
CC(C)COc1ccc(Cl)cc1Cc1nc(-c2nc3ccc(CN(C)C)cc3[nH]2)co1	711
Cc1nc(O)c2c(ccc3ccc(CNc4ccc(C(=O)N[C@@H](CCC(=O)O)C(=O)O)cc4)cc32)n1	177
CC(C)(C)c1ccc(NC(=O)c2ccc(CN3CCCN(Cc4cccc(O)c4)CC3)cc2)cc1	665
NCc1cccc(-c2cccc(CN(C(=O)Nc3ccccc3)C3CCN(Cc4ccccc4)CC3)c2)c1	829
CC(C)c1ccc(S(=O)(=O)N(c2ccc3c(c2)OCO3)C2CCN(Cc3ccccc3)C2)cc1 (stereo not drawn)	350
Fc1ccc2[nH]c3c(NCCN4CCCCC4)ncnc3c2c1	834
c1ccc2sc(Sc3ncnc4sccc34)nc2c1	734
COC(=O)c1ccc(CC(C)NCC(O)c2cccc(SC(F)(F)F)c2)cc1 (stereo not drawn)	887
CC[C@H]1CN2CC[C@H]1C[C@H]2[C@H](O)c1cc(-c2cccc(Cl)c2)nc2ccc(OC)cc12	168
O=S(=O)(NC1CCCCN(Cc2ccccc2O)C1)c1ccc(C(F)(F)F)cc1 (stereo not drawn)	1300
CNC(=O)c1ccccc1Nc1nc(Nc2cccc(CS(C)(=O)=O)c2)ncc1C	533
COc1cccc(NC(=O)Nc2ccc(C)c(-c3ccc(C(=O)Nc4ccncc4)cc3)c2)c1	520
CC(=O)c1c(Cc2cccc(C(F)(F)F)c2)c[nH]c1C	346
CN1CCN(CCCN(Cc2ccc(-c3cccc(CNC4CCCC4)c3)cc2)C(=O)/C=C/c2ccccc2)CC1	1330
Nc1c2ccccc2nc2cc(Cl)ccc12	715
CC(C)CN1CCN(c2nc(C#N)c3c(c2C(=S)NC2CCCCC2)CC(C)(C)OC3)CC1	296
C[C@H](Cc1ccc(C[C@@H](C)NC[C@H](O)c2cccc(Cl)c2)cc1)NC[C@H](O)COc1ccccc1	1170
Cc1c(F)cc(C(=O)NC2CC2)cc1-c1ccc2c(cnn2S(=O)(=O)c2ccc(Cl)s2)c1	391

Source: ChEMBL document CHEMBL1157539, “Thousands of chemical starting points for antimalarial lead identification” (Nature, 2010)
